Data published in PMC3890372 (Nature communications, 2013).

How the values were obtained:
[1] = molecular target: T1, human Smo CRD (Smoothened) (Homo sapiens, UniProt Q99835); assay: Bio-Layer Interferometry; assay type: binding
T1 sequence (Q99835 65-177): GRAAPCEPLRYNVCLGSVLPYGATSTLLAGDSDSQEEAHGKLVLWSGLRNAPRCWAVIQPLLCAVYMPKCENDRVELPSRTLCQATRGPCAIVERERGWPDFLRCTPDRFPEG

[2] = molecular target: T2, Drosophila Smo CRD (Smoothened) (Drosophila melanogaster, UniProt P91682); assay: Bio-Layer Interferometry; assay type: binding
T2 sequence (P91682 85-202): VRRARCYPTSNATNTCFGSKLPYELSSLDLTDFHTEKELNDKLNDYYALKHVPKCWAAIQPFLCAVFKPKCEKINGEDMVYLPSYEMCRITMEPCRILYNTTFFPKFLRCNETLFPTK

Kd [1]: 52 ± 16 µM
Kd [2]: 120 ± 98 µM
Compound: CCCC1O[C@@H]2C[C@H]3[C@@H]4CCC5=CC(=O)C=C[C@]5(C)[C@H]4[C@@H](O)C[C@]3(C)[C@]2(C(=O)CO)O1 (some centres unmarked) [Bud, budesonide]
